Literature values in patent US20260207579A1, “VITAMIN B SUPPLEMENTATION TO TREAT PITUITARY PARS INTERMEDIA DYSFUNCTION (PPID) IN EQUIDS” (MARS INCORPORATED, priority 2022, published 2026).
Structures can show the parent of a compound that is named as a salt.

Key:
brain cells = settings: species other than the horse
[1] = 3 g/day, mares, mean BW of ~500 kg
[2] = 5 g/day, horses
[3] = tested on: adult Thoroughbred horses; settings: 3 g/day for 6 weeks, exercising adult Thoroughbred horses likely around 500 kg
dopamine production = settings: over the long term, mice
dementia = settings: humans with dementia and concurrent vitamin B12 deficiency

In the case of `O=C(O)c1cccnc1` [NA, nicotinic acid], the “intracellular NAD+ levels” value (brain cells) is given as “increase”, the “bioavailability of NAD+ precursors in the follicular fluid” value [1] is given as “increased” and the “plasma concentrations of NAD+ precursors” value [1] is given as “no apparent increase”.

For `N[C@@H](Cc1c[nH]c2ccccc12)C(=O)O` [Tryptophan, tryptophan], the behavioural effects (horses) is listed as “both excitatory and sedative effects” and the toxicity (horses; high doses) is listed as “hemolytic anemia and symptoms of respiratory distress”.

For `O=C(O)c1cccnc1` [niacin], the “plasma and urine concentrations of NAD+ precursors” value [2] is given as “increases”, the adverse effects [3] is given as “no measured adverse effects” and the “benefits as putative ergogenic aid” value [3] is given as “no apparent benefits”.

In the case of `NC(=O)c1ccc[n+]([C@@H]2O[C@H](CO)[C@@H](O)[C@H]2O)c1` [nicotinamide riboside], the dopamine production (dopamine production) is listed as “may downregulate dopamine production”.

For `CCCN1C[C@H](CSC)C[C@@H]2c3cccc4[nH]cc(c34)C[C@H]21` [pergolide mesylate], the “clinical outcome in PPID” value (PPID) is given as “clinical improvement”.

For vitamin B12, the effect of supplementation (dementia) is given as “beneficial”.
